# Laboratory results from publication PMC10907603, “MFSD7c functions as a transporter of choline at the blood–brain barrier” (Cell Research, 2024).
# Substitutions are numbered along the chain they refer to. Names may count otherwise.
# B1: hMfsd7c (human MFSD7c, FLVCR2) (Homo sapiens) (protein)
# chain: MVNEGPNQEESDDTPVPESALQADPSVSVHPSVSVHPSVSINPSVSVHPSSSAHPSALAQPSGLAHPSSSGPEDLSVIKVSRRRWAVVLVFSCYSMCNSFQWIQYGSINNIFMHFYGVSAFAIDWLSMCYMLTYIPLLLPVAWLLEKFGLRTIALTGSALNCLGAWVKLGSLKPHLFPVTVVGQLICSVAQVFILGMPSRIASVWFGANEVSTACSVAVFGNQLGIAIGFLVPPVLVPNIEDRDELAYHISIMFYIIGGVATLLLILVIIVFKEKPKYPPSRAQSLSYALTSPDASYLGSIARLFKNLNFVLLVITYGLNAGAFYALSTLLNRMVIWHYPGEEVNAGRIGLTIVIAGMLGAVISGIWLDRSKTYKETTLVVYIMTLVGMVVYTFTLNLGHLWVVFITAGTMGFFMTGYLPLGFEFAVELTYPESEGISSGLLNISAQVFGIIFTISQGQIIDNYGTKPGNIFLCVFLTLGAALTAFIKADLRRQKANKETLENKLQEEEEESNTSKVPTAVSEDHL
# notes: full-length cDNA in pcDNA3.1, transiently expressed in HEK293 cells
# B2: hMfsd7c (human MFSD7c, FLVCR2) (Homo sapiens; S203Y) (protein)
# chain: B1 chain with S203Y
# notes: as for B1
# How the values were obtained:
# Assay in all cases: [3H]choline uptake in transfected HEK293 cells
# Format in all cases: cell-based
# [1] = biological target: T1, MeMfsd7c (Oryzias latipes, UniProt H2LZ31); settings: 100 µM choline, DMEM with 10% FBS, 37 °C, 1 h; labelled compound
# T1 construct: gene flvcr2b
# T1 sequence (H2LZ31 1-532): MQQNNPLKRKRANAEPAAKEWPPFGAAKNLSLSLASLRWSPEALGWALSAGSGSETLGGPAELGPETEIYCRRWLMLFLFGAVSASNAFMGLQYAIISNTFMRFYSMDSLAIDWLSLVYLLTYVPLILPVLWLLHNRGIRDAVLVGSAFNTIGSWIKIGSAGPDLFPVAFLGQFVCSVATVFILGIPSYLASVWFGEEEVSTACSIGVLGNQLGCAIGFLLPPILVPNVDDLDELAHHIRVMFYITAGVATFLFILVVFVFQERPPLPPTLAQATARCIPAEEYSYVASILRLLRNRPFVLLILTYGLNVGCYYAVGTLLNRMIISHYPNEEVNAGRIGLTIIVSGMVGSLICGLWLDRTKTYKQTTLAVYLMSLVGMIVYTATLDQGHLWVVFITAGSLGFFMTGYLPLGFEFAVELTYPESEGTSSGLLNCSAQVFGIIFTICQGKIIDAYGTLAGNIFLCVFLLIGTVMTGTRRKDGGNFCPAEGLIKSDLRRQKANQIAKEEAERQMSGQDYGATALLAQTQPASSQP
# [2] = biological target: T2, DaMfsd7c_b (Danio rerio, UniProt A0A8M9Q308); settings: 100 µM choline, DMEM with 10% FBS, 37 °C, 1 h; labelled compound
# T2 construct: gene flvcr2b
# T2 sequence (A0A8M9Q308 1-485): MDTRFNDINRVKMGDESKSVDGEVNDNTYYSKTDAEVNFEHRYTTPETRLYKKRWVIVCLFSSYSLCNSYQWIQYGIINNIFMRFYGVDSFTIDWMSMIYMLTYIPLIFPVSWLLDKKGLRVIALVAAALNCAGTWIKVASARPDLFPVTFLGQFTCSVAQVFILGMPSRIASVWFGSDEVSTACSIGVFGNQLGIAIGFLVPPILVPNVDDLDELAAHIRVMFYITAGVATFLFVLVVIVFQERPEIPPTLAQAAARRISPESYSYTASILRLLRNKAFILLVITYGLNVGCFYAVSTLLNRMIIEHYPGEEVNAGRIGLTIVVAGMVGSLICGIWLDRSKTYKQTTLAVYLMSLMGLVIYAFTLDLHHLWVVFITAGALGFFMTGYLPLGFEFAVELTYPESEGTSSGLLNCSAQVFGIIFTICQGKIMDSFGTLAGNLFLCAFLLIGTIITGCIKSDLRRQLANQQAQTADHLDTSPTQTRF
# [3] = biological target: T3, XeMfsd7c (Xenopus tropicalis, UniProt Q28EC5); settings: 100 µM choline, DMEM with 10% FBS, 37 °C, 1 h; labelled compound
# T3 construct: gene flvcr2
# T3 sequence (Q28EC5 1-494): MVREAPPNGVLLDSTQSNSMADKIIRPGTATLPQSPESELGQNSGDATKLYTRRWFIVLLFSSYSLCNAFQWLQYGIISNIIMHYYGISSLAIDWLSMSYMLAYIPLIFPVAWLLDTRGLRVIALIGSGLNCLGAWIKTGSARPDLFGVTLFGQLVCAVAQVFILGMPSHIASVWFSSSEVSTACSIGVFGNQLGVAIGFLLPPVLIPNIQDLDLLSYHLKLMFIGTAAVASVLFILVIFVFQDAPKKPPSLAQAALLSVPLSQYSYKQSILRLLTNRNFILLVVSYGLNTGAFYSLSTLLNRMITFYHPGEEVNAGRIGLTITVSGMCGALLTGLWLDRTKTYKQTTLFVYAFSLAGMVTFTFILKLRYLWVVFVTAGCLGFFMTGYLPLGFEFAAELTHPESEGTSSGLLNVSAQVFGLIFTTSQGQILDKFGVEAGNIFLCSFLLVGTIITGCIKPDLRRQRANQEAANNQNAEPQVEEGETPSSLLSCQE
# [4] = biological target: T4, DaMfsd7c_a (Danio rerio, UniProt A0A0R4ILB2); settings: 100 µM choline, DMEM with 10% FBS, 37 °C, 1 h; labelled compound
# T4 construct: gene flvcr2a
# T4 sequence (A0A0R4ILB2 1-470): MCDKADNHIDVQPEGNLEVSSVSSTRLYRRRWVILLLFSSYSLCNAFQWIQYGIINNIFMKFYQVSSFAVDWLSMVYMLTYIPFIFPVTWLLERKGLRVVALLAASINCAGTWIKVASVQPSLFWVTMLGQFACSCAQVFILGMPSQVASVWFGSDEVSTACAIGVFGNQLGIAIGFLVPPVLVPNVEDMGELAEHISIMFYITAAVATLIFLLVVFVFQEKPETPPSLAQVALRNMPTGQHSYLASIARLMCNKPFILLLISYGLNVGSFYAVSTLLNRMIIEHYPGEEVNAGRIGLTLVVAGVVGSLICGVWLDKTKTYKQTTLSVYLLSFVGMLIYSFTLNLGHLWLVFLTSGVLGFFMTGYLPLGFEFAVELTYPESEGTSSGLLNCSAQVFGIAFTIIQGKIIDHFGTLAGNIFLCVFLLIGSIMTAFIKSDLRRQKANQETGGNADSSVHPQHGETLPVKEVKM
# [5] = substrate: C[N+](C)(C)CCO; settings: co-expressed human choline kinase A (hChKA), DMEM with 10% FBS, 37 °C, 60 min, labelled compound
# From the text: [3H]choline uptake in transfected HEK293 cells on hMfsd7c (human MFSD7c, FLVCR2) | The kinetics (Km) and Vmax for choline import by human Mfsd7c under this condition
# [6] = substrate: C[N+](C)(C)CCO; settings: co-expressed human choline kinase A (hChKA), DMEM with 10% FBS, 37 °C, 60 min, labelled compound; remark: listed apart in the source
# From the text: [3H]choline uptake in transfected HEK293 cells on hMfsd7c (human MFSD7c, FLVCR2) | The Km and Vmax for importing choline by S203Y mutant under this condition were […]
molecule,measurement,setting,value
C[N+](C)(C)CCO [choline],[3H]choline uptake in transfected HEK293 cells,[1],these MFSD7c orthologs also exhibited choline transport activity
same,[3H]choline uptake in transfected HEK293 cells,[2],these MFSD7c orthologs also exhibited choline transport activity
same,[3H]choline uptake in transfected HEK293 cells,[3],these MFSD7c orthologs also exhibited choline transport activity
same,[3H]choline uptake in transfected HEK293 cells,[4],these MFSD7c orthologs also exhibited choline transport activity
B1,Km,[5],100 µM
B2,Km,[6],1197 µM
